Read-outs that look alike come from different tables or passages of the source.
Assays:
rubella RA27/3 virus = experiment: microbe, parasite or virus in culture; type: cell-based; settings: for selectivity index (SI = CC50/IC50): A549 cells; for inhibition at 1 µM: A549, read-out: inhibition of infection in primary screen
Text: (§1) We developed a high-throughput, high-content, cell-based assay to monitor rubella virus infection of the human respiratory cell line A549, as the respiratory tract is infected in humans. […] We infected A549 cells with the rubella virus vaccine strain (RA27/3) and monitored infection using an antibody to the viral glycoprotein E1 (Fig. 1A) ([13]). […] To evaluate the utility of nanchangmycin as a positive control for our assay development, we performed a dose–response assay for nanchangmycin using automated fluorescent microscopy to quantify the cell number as a surrogate for cell viability and percent infection (Fig. 1A).
A549 cells were plated in 384 well plates at 3,000 cells/well, HBMEC were plated at 7,000 cells/well, or Jeg-3 cells were plated at 3,000 cells/well in 20 μL growth media. The next day, 50 nL of drugs were added to assay wells, yielding a final concentration of 1 µM. The positive control nanchangmycin (n = 32) and the negative control DMSO (n = 32) were spotted on each assay plate. […] HBMECs were spin-infected by centrifuging at 1,250×g for 1 h at 25°C. Cells were fixed at 48 h post infection (hpi) in 4% formaldehyde/phosphate-buffered saline (PBS) for 15 min at room temperature and then washed twice with PBS. Cells were blocked with blocking buffer [2% bovine serum albumin in PBS with 0.1% Triton X-100 (PBST)]) for 1 h and incubated with primary antibody (mouse antirubella E1, CDC, 1 μg/mL) overnight at 4°C. […] Cells were washed three times with PBST and imaged using ImageXpress Micro (Molecular Devices). Cells were imaged with a 10× objective capturing four sites per well. The total number of cells and the percentage of infected cells were measured using the MetaXpress 5.3.3 cell scoring module. The aggregated percent infection of the DMSO and 2 µM nanchangmycin control wells on each assay plate were used to calculate Z′-factors. Sample well infection was normalized to aggregated DMSO plate control wells and expressed as percentage of control (POC = [%Infection sample/Average %Infection DMSO] × 100) and Z-score (Z = [%Infection sample − Average %Infection DMSO]/Standard Deviation %Infection DMSO) in Spotfire (PerkinElmer). Candidate hits were selected as compounds with POC <40% and viability >60%, compared with vehicle control.
(§2) Drugs were purchased as powders from Selleckchem, MedchemExpress, and MedKoo and suspended in DMSO. Drugs were arrayed in 8-pt dose–response in 384 well plates. Infections were performed using the screening conditions. DMSO (n = 32) and 2 µM nanchangmycin (n = 16) were included on each validation plate as controls for normalization. Infection at each drug concentration was normalized to aggregated DMSO plate control wells and expressed as POC (POC = %Infection sample/Average %Infection DMSO cont). A nonlinear regression curve fit analysis (GraphPad Prism 8) was performed on POC infection and cell viability using log10 transformed concentration values to calculate IC50 values for infection and CC50 values for cell viability. SI was calculated as a ratio of the drug's CC50 and IC50 values (SI = CC50/IC50).

[1] = cell number (cell viability) in A549 cells, Hoechst 33342, automated microscopy; type: cell-based, human; settings: human
Text: as §1
(§3) A549 cells were plated in 384 well plates at 3,000 cells/well, HBMEC were plated at 7,000 cells/well, or Jeg-3 cells were plated at 3,000 cells/well in 20 μL growth media. The next day, 50 nL of drugs were added to assay wells, yielding a final concentration of 1 µM. The positive control nanchangmycin (n = 32) and the negative control DMSO (n = 32) were spotted on each assay plate. One hour later, cells were infected with rubella virus at a multiplicity of infection (MOI) = 0.234 for A549s, MOI = 0.1 for HBMEC, MOI = 0.05 for Jeg-3 cells). […] HBMECs were spin-infected by centrifuging at 1,250×g for 1 h at 25°C. Cells were fixed at 48 h post infection (hpi) in 4% formaldehyde/phosphate-buffered saline (PBS) for 15 min at room temperature and then washed twice with PBS. Cells were blocked with blocking buffer [2% bovine serum albumin in PBS with 0.1% Triton X-100 (PBST)]) for 1 h and incubated with primary antibody (mouse antirubella E1, CDC, 1 μg/mL) overnight at 4°C. Cells were washed three times with PBST and incubated in secondary (1:1000 antimouse Alexa Fluor 488 and 5 μg/mL Hoechst 33342) for 1 h at room temperature. Cells were washed three times with PBST and imaged using ImageXpress Micro (Molecular Devices). Cells were imaged with a 10× objective capturing four sites per well. The total number of cells and the percentage of infected cells were measured using the MetaXpress 5.3.3 cell scoring module. The aggregated percent infection of the DMSO and 2 µM nanchangmycin control wells on each assay plate were used to calculate Z′-factors. Sample well infection was normalized to aggregated DMSO plate control wells and expressed as percentage of control (POC = [%Infection sample/Average %Infection DMSO] × 100) and Z-score (Z = [%Infection sample − Average %Infection DMSO]/Standard Deviation %Infection DMSO) in Spotfire (PerkinElmer). Candidate hits were selected as compounds with POC <40% and viability >60%, compared with vehicle control.
as §2

rubella virus [2] = experiment: rubella virus infection of HBMEC, dose-response; type: cell-based; settings: dose-response
Description: Rubella virus can infect diverse tissues in vivo, and viruses can show tissue-specific dependencies on host factors. […] First, we developed assays in human brain microvascular endothelial cells (HBMECs) as a model for endothelial cells. We again used nanchangmycin to optimize the assay (Fig. 3A and B).
as §3, §2

Jeg-3 cells = experiment: cell number (cell viability) in Jeg-3 cells; type: cell-based, human
Description: as §3, with “The aggregated percent infection of the DMSO and 2 µM nanchangmycin control wells on each assay plate were used to calculate Z′-factors.” left out, “Candidate hits were selected as compounds with POC <40% and viability >60%, compared with vehicle control.” left out
Drugs were purchased as powders from Selleckchem, MedchemExpress, and MedKoo and suspended in DMSO. […] Infection at each drug concentration was normalized to aggregated DMSO plate control wells and expressed as POC (POC = %Infection sample/Average %Infection DMSO cont). […] SI was calculated as a ratio of the drug's CC50 and IC50 values (SI = CC50/IC50).

rubella virus [3] = experiment: rubella virus infection of Jeg-3 cells, dose-response; type: cell-based
Description: Since rubella can cause congenital infections, we next developed assays in the human trophoblast cell line Jeg-3.
as §3, §2

rubella virus [4] = experiment: qRT-PCR of viral RNA in infected A549 cells; type: cell-based; settings: 10 µM, 48 h, vs vehicle
Description: (§4) We next performed orthogonal assays to determine the magnitude of the inhibition of rubella infection upon treatment with either NM107 or AT-527. […] We also determined if these nucleoside analogs impacted virus production.
(§5) A549 cells were plated in 6-well plates at 5 × 10^5 cells/well, HBMEC were plated at 6 × 10^5 cells/well, or Jeg-3 cells were plated at 5 × 10^5 cells/well. Twenty-four hours later, vehicle or drugs were added at the indicated concentrations. One hour later, cells were infected with rubella virus (MOI = 0.17 for A549s, MOI = 0.07 for HBMEC, MOI = 0.05 for Jeg-3 cells) and HBMEC were spin-infected by centrifuging at 1,250×g for 1 h at 25°C. […] At 48 hpi, total RNA was purified using Trizol (Invitrogen) followed by the RNA Clean and Concentrate kit (Zymo Research). cDNA synthesis was performed with random hexamers and Moloney murine leukemia virus reverse transcriptase (Invitrogen). Gene-specific primers to rubella RA27/3 NSP and GAPDH were used (Table S4). […] Relative quantities of viral and cellular RNA were calculated using a relative standard curve method where quantification was performed with respect to a 5-point standard curve generated from serial dilutions of a pooled reference generated by combining each sample cDNA for the experiment. […]

rubella virus [5] = experiment: viral titers of A549 supernatants, TCID50 assay; type: cell-based; settings: A549 cells, 10 µM, 48 hpi, at the limit of detection
Description: (§6) A549 or Jeg-3 cells were plated, treated, and infected as for the qRT–PCR experiments. At 4 hpi, cells were washed twice with DPBS (Invitrogen) to remove any nonadsorbed virus and 2 mL of appropriate culture medium treated with vehicle or drug was added. At 48 hpi, cell supernatants were collected and titered by TCID50 assay.
(§7) A549 cells were plated in 96 well plates at 25,000 cells/well and incubated overnight before inoculating with two-fold serial dilutions of viral stock or virus-containing supernatant to determine viral titer. At 24 hpi, plates were processed for microscopy and imaged as above. Titers were calculated using the Reed–Muench method ([26]).

rubella virus [6] = experiment: qRT-PCR of viral RNA in infected Jeg-3 cells; type: cell-based; settings: 10 μM, 48 h, vs vehicle
Description: as §4, §5

rubella virus [7] = experiment: viral titers of Jeg-3 supernatants, TCID50 assay; type: cell-based; settings: Jeg-3 cells, 10 μM, 48 hpi, below the limit of detection
Description: as §6, §7

HCV = system: HCV; set-up: method as in PMID 31914458; settings: cited from earlier work
rubella virus [8] = system: rubella virus; set-up: method as in PMID 30680653, PMID 28974385; settings: case study; cited from earlier work
rubella virus [9] = system: rubella virus; set-up: method as in PMID 30680653, PMID 28974385; settings: cited from earlier work

Question: Which results are given for `COC1=C2C[C@@H](C)C[C@H](OC)[C@H](O)[C@@H](C)/C=C(\C)[C@H](OC(N)=O)[C@@H](OC)/C=C\C=C(/C)C(=O)NC(=CC1=O)C2=O` [geldanamycin]?
Answer: selectivity index (SI = CC50/IC50) (rubella RA27/3 virus): > 163; inhibition at 1 µM (rubella RA27/3 virus; Rubella virus): > 60%; viability at 48 h, 1 µM [1]: > 60%; activity against rubella in HBMEC (rubella virus [2]): showed activity; toxicity in Jeg-3 cells (Jeg-3 cells): high toxicity

Question: Which “selectivity index (SI = CC50/IC50)” value (rubella RA27/3 virus) does the source give for `CNc1nc(N)nc2c1ncn2[C@@H]1O[C@H](CO[P@@](=O)(N[C@@H](C)C(=O)OC(C)C)Oc2ccccc2)[C@@H](O)[C@@]1(C)F` [AT-527] here?
Answer: > 9

Question: And the IC50 (rubella RA27/3 virus; Rubella virus, A549, read-out: half-maximal inhibitory concentration (IC50), rubella virus infection)?
Answer: 2250 nM

Question: What about the IC50 (rubella virus [3]; Rubella virus, JEG-3, read-out: IC50, rubella virus infection) of the same compound?
Answer: 10 nM

Question: What about the “reduction in viral replication as measured by qRT-PCR” value (rubella virus [4]) of the same compound?
Answer: > 100 fold

Question: And the “reduction of viral titers” value (rubella virus [5])?
Answer: ~100,000 fold

Question: What about the “reduction in viral RNA by qRT-PCR” value (rubella virus [6]) of the same compound?
Answer: > 100 fold

Question: And the “reduction of viral titers” value (rubella virus [7])?
Answer: ~10,000 fold

Question: And the “in vivo activity in a clinical trial” value (HCV; HCV infection)?
Answer: showed in vivo activity

Question: What about the “tolerability in clinical trial” value (HCV) of the same compound?
Answer: well tolerated

Question: For `CC(=O)Oc1ccccc1C(=O)Nc1ncc([N+](=O)[O-])s1` [nitazoxanide], which “rubella virus antigen in patient (skin lesions)” value (rubella virus [8]) is on record?
Answer: reduced rubella antigen

Question: What about the “antiviral activity in cultured cells infected with rubella virus” value (rubella virus [9]) of the same compound?
Answer: showed antiviral activity

Question: What does the source list for `O=C1NC(=O)C(c2cnc3ccccn23)=C1c1cn2c3c(cc(F)cc13)CN(C(=O)N1CCCCC1)CC2` [LY2090314]?
Answer: selectivity index (SI = CC50/IC50) (rubella RA27/3 virus): > 2000; inhibition at 1 µM (rubella RA27/3 virus; Rubella virus): > 60%; viability at 48 h, 1 µM ([1]; A549 cells (infected with rubella virus RA27/3), A549 cells, 1 µM, compared with vehicle alone, read-out: cell viability in primary screen): > 60%; activity against rubella in HBMEC (rubella virus [2]): showed activity; activity against rubella in Jeg-3 cells (rubella virus [3]; Jeg-3 cells, dose-response): no activity; toxicity in Jeg-3 cells (Jeg-3 cells; Jeg-3 cells): no toxicity
